According to patent publication US20190060410A1, “Pharmaceutical Formulation Comprising GLP-1 Analogue and Preparation Method Thereof” (Hangzhou Jiuyuan Gene Engineering Co., Ltd., priority 2015, published 2019):

Key:
[1] = patients, combined with metformin (Nauck et al.); cited from earlier work
[2] = dissolution of liraglutide powder at different pHs; format: physicochemical
Method: Investigating the dissolution of liraglutide powder at different pHs
The appropriate amount of liraglutide powder was dissolved in the water for injection and the disodium hydrogen phosphate buffer at a different pH was added resulting in the dissolution shown in Table 1.

[3] = following subcutaneous injection; cited from earlier work
[4] = cited from earlier work

Dissolution ([2]; 6 mg/ml liraglutide in water for injection)	Dissolution ([2]; 6 mg/ml liraglutide, 10 mM disodium hydrogen phosphate buffer (pH 7.00))	Dissolution ([2]; 6 mg/ml liraglutide, 10 mM disodium hydrogen phosphate buffer (pH 7.50))	Dissolution ([2]; 6 mg/ml liraglutide, 10 mM disodium hydrogen phosphate buffer (pH 8.00))	Dissolution ([2]; 6 mg/ml liraglutide, 10 mM disodium hydrogen phosphate buffer (pH 8.15))	Dissolution ([2]; 6 mg/ml liraglutide, 10 mM disodium hydrogen phosphate buffer (pH 8.50))	Dissolution ([2]; 6 mg/ml liraglutide, 10 mM disodium hydrogen phosphate buffer (pH 9.00))	dissolution of liraglutide powder ([2]; acidic and neutral conditions)	dissolution of liraglutide powder ([2]; alkaline conditions)	Molecule	incidence of hypoglycemia [1]	plasma half-life [3] [h]	reduction of systolic blood pressure ([4]; LEAD series clinical trials, patients)	patients who reported nausea ([4]; LEAD-2 and LEAD-3 clinical trials) [%]
–	–	–	–	–	–	–	–	–	CCC1=C(C)CN(C(=O)NCCc2ccc(S(=O)(=O)NC(=O)N[C@H]3CC[C@H](C)CC3)cc2)C1=O [glimepiride]	17%	–	–	–
insoluble	insoluble	colorless	colorless	colorless	colorless	colorless	didn't dissolve	readily dissolved	Arg^34, Lys^26 (N^ε-(γ-Glu (N^α-hexadecanoyl))) GLP-1 (7-37) [liraglutide]	less than 3%	13	2.7-6.7 mmHg	< 10
